Legend:
Assay in all cases: area over the GR curve, 72 h; higher = more effect;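 also: Dye Drop or Deep Dye Drop imaging of viable cells in 384-well plates (Hoechst nuclei, LIVE/DEAD dye), nine half-log doses, GR normalized to DMSO controls and time-zero plates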
HCC1187 = system: HCC1187
MDAMB468 = system: MDAMB468
HCC1419 = system: HCC1419
BT20 = system: BT20
184A1 = system: 184A1
MDAMB436 = system: MDAMB436
MCF10A = system: MCF10A
CAMA1 = system: CAMA1
SUM190PT = system: SUM190PT
HCC70 = system: HCC70
HCC202 = system: HCC202
MDAMB415 = system: MDAMB415

SMILES | area over the GR curve (HCC1187) [GR] | area over the GR curve (MDAMB468) [GR] | area over the GR curve (HCC1419) [GR] | area over the GR curve (BT20) [GR] | area over the GR curve (184A1) [GR] | area over the GR curve (MDAMB436) [GR] | area over the GR curve (MCF10A) [GR] | area over the GR curve (CAMA1) [GR] | area over the GR curve (SUM190PT) [GR] | area over the GR curve (HCC70) [GR] | area over the GR curve (HCC202) [GR] | area over the GR curve (MDAMB415) [GR]
Nc1ccc(-c2ccc3ncc4ccc(=O)n(-c5cccc(C(F)(F)F)c5)c4c3c2)cn1 [Torin2] (max 1 µM) | 0.588 | 0.437 | 0.634 | 0.536 | 0.46 | 0.337 | 0.337 | 0.507 | 0.749 | 0.645 | 0.473 | 0.627
NC1(C(=O)N[C@@H](CCO)c2ccc(Cl)cc2)CCN(c2nc[nH]c3nccc2-3)CC1 [AZD5363] (max 10 µM) | -0.203 | 0.135 | 0.189 | 0.298 | 0.122 | 0.104 | 0.0283 | 0.583 | 0.272 | 0.661 | 0.236 | 0.855
CN(C)C/C=C/C(=O)Nc1ccc(C(=O)Nc2cccc(Nc3cc(-c4c[nH]c5ccccc45)ncn3)c2)cc1 [THZ-P1-2] (max 10 µM) | 0.331 | 0.344 | 0.019 | 0.137 | 0.351 | 0.272 | 0.13 | 0.309 | 0.478 | 0.326 | 0.0733 | 0.683
O=C1NC(=O)[C@@H](c2cn3c4c(cccc24)CCC3)[C@@H]1c1c[nH]c2ccccc12 [Tivantinib/ARQ197] (max 10 µM) | 0.891 | 0.49 | 0.238 | 0.416 | 0.582 | 0.421 | 0.451 | 0.526 | 0.637 | 0.474 | 0.277 | 0.213
CN1CC[C@H](c2c(O)cc(O)c3c(=O)cc(-c4ccccc4Cl)oc23)[C@H](O)C1 [Flavopiridol] (max 1 µM) | 0.0933 | 0.269 | 0.225 | 0.334 | 0.418 | 0.224 | 0.277 | 0.253 | 0.348 | 0.415 | 0.273 | 0.284
CN(C)C/C=C/C(=O)Nc1ccc(C(=O)Nc2cccc(Nc3ncc(Cl)c(-c4c[nH]c5ccccc45)n3)c2)cc1 [THZ1] (max 1 µM) | 0.71 | 0.48 | 0.369 | 0.108 | 0.528 | 0.196 | 0.36 | 0.459 | 0.767 | 0.762 | 0.42 | 0.453
CNc1nc(-c2ccc3c(N)n[nH]c3c2)cc(N2C[C@@H](C(=O)NC3CCCCC3)CC[C@H]2C)n1 (max 10 µM) | -0.283 | 0.0821 | 0.245 | 0.0701 | 0.135 | 0.0007 | -0.0162 | -0.0192 | 0.292 | 0.288 | 0.365 | 0.295
CCC(=O)Nc1ccc(C(=O)Nc2ccc(Nc3ncc4c(n3)N(C)c3ccc(C)cc3C(=O)N4C)cc2)cc1 [FMF-03-145-1] | 1.51 | 0.572 | 0.261 | 1.2 | 1 | 0.465 | 1.05 | 0.393 | 0.94 | 1.31 | 0.602 | 0.845
CC(C)n1nc(-c2ccc3oc(N)nc3c2)c2c(N)ncnc21 [INK128/MLN0128] (max 3.162 µM) | 0.416 | 0.502 | 0.763 | 0.568 | 0.581 | 0.429 | 0.467 | 0.64 | 0.791 | 0.702 | 0.581 | 0.692
O=C1NC(=NCc2cccs2)SC1=Cc1ccc2ncccc2c1 [R0-3306] (max 10 µM) | 0.017 | 0.185 | -0.0238 | 0.109 | 0.207 | 0.0623 | 0.115 | 0.0858 | 0.176 | 0.0814 | 0.14 | 0.0262
COc1cc2c(Oc3ccc4[nH]c(C)cc4c3F)ncnc2cc1OCCCN1CCCC1 [Cediranib/AZD2171] (max 10 µM) | 0.195 | 0.165 | 0.0482 | 0.0199 | 0.0594 | 0.161 | 0.031 | 0.109 | -0.0464 | 0.0746 | 0.0677 | 0.246
CN(C)CC[C@H](CSc1ccccc1)Nc1ccc(S(=O)(=O)NC(=O)c2ccc(N3CCN(Cc4ccccc4-c4ccc(Cl)cc4)CC3)cc2)cc1[N+](=O)[O-] [ABT-737] (max 10 µM) | 0.526 | 0.086 | -0.0276 | 0.0208 | 0.153 | -0.0008 | 0.0104 | 0.0008 | 0.492 | 0.0935 | -0.0052 | 0.0607
COc1cc(N2CCN(C)CC2)ccc1Nc1ncc2c(n1)N(C)c1ccccc1C(=O)N2CC(F)(F)F [FMF-03-146-1] | -0.332 | 0.0476 | 0.0393 | 0.0278 | 0.0018 | -0.005 | -0.0018 | -0.0223 | 0.101 | -0.0097 | 0.0146 | 0.0297
CCc1cncnc1N1CCN(Cc2nc3ccc(C(F)(F)F)cc3[nH]2)CC1 (max 10 µM) | 0.014 | 0.118 | 0.112 | -0.0022 | -0.0012 | 0.0903 | 0.0475 | 0.0582 | 0.0049 | -0.077 | 0.0342 | 0.0085
CO[C@H]1C[C@@H]2CC[C@@H](C)[C@@](O)(O2)C(=O)C(=O)N2CCCC[C@H]2C(=O)O[C@H]([C@H](C)C[C@@H]2CC[C@@H](OCCO)[C@H](OC)C2)CC(=O)[C@H](C)/C=C(\C)[C@@H](O)[C@@H](OC)C(=O)[C@H](C)C[C@H](C)/C=C/C=C/C=C/1C [Everolimus] (max 10 µM) | 0.287 | 0.429 | 0.724 | 0.593 | 0.452 | 0.314 | 0.113 | 0.767 | 0.571 | 0.476 | 0.499 | 0.807
CN1CCN(C(=O)c2ccc3cc(CCNc4ncnc5ccc(C#N)cc45)ccc3c2)CC1 [senexin b] (max 10 µM) | -0.306 | 0.28 | 0.13 | 0.275 | 0.107 | 0.0859 | -0.0308 | 0.351 | 0.435 | 0.209 | 0.182 | 0.173
C[C@@H]1COCCN1c1cc(C2([S@](C)(=N)=O)CC2)nc(-c2cc[nH]c3nccc2-3)n1 [AZD6738] (max 10 µM) | 0.249 | 0.0381 | 0.0421 | -0.0437 | -0.0342 | 0.0381 | 0.0334 | -0.0516 | 0.124 | 0.283 | 0.0023 | 0.0148
COc1ccc2c(c1)[C@]1(C[C@H]1c1ccc3c(/C=C/c4ccc(CN5C[C@@H](C)O[C@@H](C)C5)cc4)n[nH]c3c1)C(=O)N2 | 0.535 | 0.838 | 0.425 | 1.07 | 0.668 | 0.768 | 0.817 | 0.587 | 0.751 | 1.11 | 0.299 | 0.36
CC(=O)O[C@H]1C(=O)[C@@]2(C)[C@H]([C@H](OC(=O)c3ccccc3)[C@]3(O)C[C@H](OC(=O)[C@H](O)[C@@H](NC(=O)c4ccccc4)c4ccccc4)C(C)=C1C3(C)C)[C@]1(OC(C)=O)CO[C@@H]1C[C@@H]2O [Paclitaxel] (max 1 µM) | 1.34 | 1.01 | 0.47 | 0.985 | 0.75 | 0.708 | 0.702 | 0.953 | 0.872 | 0.977 | 0.552 | 0.948
CCCCOc1c(C(=O)c2c(F)cc(C)cc2F)c[nH]c2nncc1-2 (max 10 µM) | 0.203 | 0.516 | 0.301 | 0.84 | 0.954 | 0.355 | 0.39 | 0.842 | 0.715 | 0.914 | 0.359 | 0.349
Cc1nc(-c2cn3c(n2)-c2ccc(-c4cnn(C(C)(C)C(N)=O)c4)cc2OCC3)n(C(C)C)n1 [Taselisib/GDC0032] (max 10 µM) | 0.497 | 0.217 | 0.852 | 0.736 | 0.457 | 0.173 | 0.484 | 0.245 | 0.298 | 0.548 | 0.791 | 0.516
Cc1nn(C)c(COc2ccc(N3CCN(S(=O)(=O)N(C)C)CC3)cc2)c1-c1cccc2c(CCCOc3cccc4ccccc34)c(C(=O)O)n(CCN3CCOCC3)c12 (max 10 µM) | -0.0287 | 0.0206 | 0.0402 | -0.0396 | 0.0952 | 0.014 | 0.0018 | 0.0026 | -0.063 | 0.0018 | -0.005 | 0.0101
C=CC(=O)Nc1ccc(C(=O)Nc2[nH]nc3c2CN(C(=O)N[C@H](CN(C)C)c2ccccc2)C3(C)C)cc1 [YKL-5-124] (max 10 µM) | 0.822 | 1.11 | 1.01 | 0.693 | 0.929 | 0.584 | 0.921 | 0.968 | 0.831 | 1.46 | 0.706 | 0.664
Cc1cc(C(C)Nc2ccccc2)c2nc(N3CCOCC3)cc(=O)n2c1 (stereo not given) [TGX221] (max 10 µM) | 0.305 | 0.103 | -0.0488 | -0.0612 | 0.0024 | -0.0103 | 0.005 | 0.0019 | -0.0619 | 0.467 | -0.0253 | 0.224
CC1(N)CCN(c2cnc(-c3cccc(Cl)c3Cl)c(N)n2)CC1 [SHP099] (max 10 µM) | -0.341 | 0.134 | 0.0437 | 0.0072 | 0.118 | -0.0036 | 0.081 | 0.0525 | 0.0478 | 0.074 | 0.051 | 0.0605

From the supplement of paper PMC9663587
